Reference: patent US11691962B2 (eXIthera Pharmaceuticals, Inc., priority 2018, dated 2023)

Legend:
[1] = Metabolic stability in dog hepatocytes; type: in vitro ADME; details: pooled cryopreserved hepatocytes; beagle dog hepatocytes, 2 μM compound; read-out: Dog Hepatocyte Stability (t1/2)
How it was run: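 Pooled cryopreserved beagle hepatocytes at 500,000 cells/mL in Krebs-Henseleit buffer with 2 μM compound, 37 °C, 5% CO2, sampled out to 180 min. Acetonitrile-quenched samples analysed by LC-MS/MS; percent remaining from peak area versus time zero.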

Trypsin = assay: Dose response assay for protease inhibitors: trypsin; type: biochemical; details: selectivity, trypsin over Factor XIa
How it was run: (§1)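 Glp-Pro-Arg-AMC substrate (thrombin, trypsin) or Pro-Phe-Arg-AMC/Boc-Leu-Gly-Arg-AMC (Factor Xa), diluted to 100 μM, in 20 mM Hepes pH 7.4, 150 mM NaCl, 0.02% Tween 20; enzyme diluted to 0.5 nM before addition. Two-fold serial compound dilutions; kinetic reads at 30° C. Data yield IC50 and Kon.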

Factor XIa = Factor XIa (Homo sapiens (Human), UniProt P03951); assay: Factor XIa enzyme inhibition assay (dose response, fluorogenic AMC substrate); type: biochemical; details: read-out: hFXIa IC50
How it was run: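 Fluorogenic progress curves (30 min, 1-min reads, 30° C) were recorded for 0.25 nM FXIa cleaving 50 μM Glp-Pro-Arg-AMC in Hepes pH 7.4 buffer with NaCl and Tween 20. Compounds were serially two-fold diluted, and IC50 was fitted with a Hill equation.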

Factor Xa = Factor Xa (Homo sapiens (Human), UniProt P00742); assay: Dose response assay for protease inhibitors: Factor Xa; type: biochemical; details: selectivity, Factor Xa over Factor XIa
How it was run: as §1

Chain of Factor Xa (P00742 235-488): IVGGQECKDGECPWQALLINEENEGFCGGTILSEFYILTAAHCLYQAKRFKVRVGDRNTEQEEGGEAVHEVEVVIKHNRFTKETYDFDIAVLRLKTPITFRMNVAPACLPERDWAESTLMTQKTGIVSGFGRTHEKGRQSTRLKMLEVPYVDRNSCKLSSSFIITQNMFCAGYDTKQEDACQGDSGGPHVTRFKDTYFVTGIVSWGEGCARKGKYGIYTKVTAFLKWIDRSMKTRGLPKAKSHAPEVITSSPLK
Chain of Factor Xa (P00742 41-179 partner): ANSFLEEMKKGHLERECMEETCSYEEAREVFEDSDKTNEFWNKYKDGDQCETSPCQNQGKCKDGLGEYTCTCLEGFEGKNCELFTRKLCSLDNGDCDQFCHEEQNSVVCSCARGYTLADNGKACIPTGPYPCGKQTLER
Chain of Factor XIa (P03951 388-625): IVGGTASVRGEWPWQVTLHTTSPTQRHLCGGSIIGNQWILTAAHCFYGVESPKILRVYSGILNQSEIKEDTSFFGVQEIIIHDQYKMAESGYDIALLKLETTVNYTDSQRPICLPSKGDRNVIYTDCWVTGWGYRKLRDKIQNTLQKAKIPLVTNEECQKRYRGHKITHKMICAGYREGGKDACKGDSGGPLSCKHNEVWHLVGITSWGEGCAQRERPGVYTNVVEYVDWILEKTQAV
Chain of Factor XIa (P03951 19-387 partner): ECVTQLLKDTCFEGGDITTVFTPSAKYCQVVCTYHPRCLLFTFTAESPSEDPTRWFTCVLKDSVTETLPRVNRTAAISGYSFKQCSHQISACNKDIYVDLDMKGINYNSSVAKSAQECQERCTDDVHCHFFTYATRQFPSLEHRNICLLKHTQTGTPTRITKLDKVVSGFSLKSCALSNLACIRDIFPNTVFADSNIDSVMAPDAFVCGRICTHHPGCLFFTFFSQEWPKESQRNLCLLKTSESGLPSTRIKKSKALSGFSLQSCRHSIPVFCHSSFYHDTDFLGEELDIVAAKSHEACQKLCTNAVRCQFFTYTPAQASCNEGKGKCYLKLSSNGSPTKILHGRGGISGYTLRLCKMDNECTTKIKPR

SMILES	half-life at 2 μM [1]	Ratio: Trypsin/FXIa (Trypsin)	IC50 (Factor XIa)	Ratio: FXa/FXIa (Factor Xa)
CC[C@@H](NC(=O)N1C(=O)[C@H](Cc2ccnc(N)c2)[C@H]1C(=O)N(C)c1cnn(C)c1)c1ccccc1 [Compound 1-88, (2S,3R)-3-((2-aminopyridin-4-yl)methyl)-N2-(1-methyl-1H-pyrazol-4-yl)-N1-((R)-1-phenylpropyl)-N2-methyl-4-oxoazetidine-1,2-dicarboxamide]	> 4 h	G (“G” indicates 1-100)	< 10 nM	H (“H” indicates 101-1000)
CC[C@@H](NC(=O)N1C(=O)[C@H](Cc2ccnc(N)c2)[C@H]1C(=O)N(C)c1cccs1)c1ccccc1 [Compound 1-10, (2S,3R)-3-((2-aminopyridin-4-yl)methyl)-N2-(thiophen-2-yl)-N1-((R)-1-phenylpropyl)-N2-methyl-4-oxoazetidine-1,2-dicarboxamide]	< 1 h	G (“G” indicates 1-100)	< 10 nM	H (“H” indicates 101-1000)
CC[C@@H](NC(=O)N1C(=O)[C@H](Cc2ccnc(N)c2)[C@H]1C(=O)N(C)c1cscn1)c1ccccc1 [Compound 1-8, (2S,3R)-3-((2-aminopyridin-4-yl)methyl)-N2-(4-thiazolyl)-N1-((R)-1-phenylpropyl)-N2-methyl-4-oxoazetidine-1,2-dicarboxamide]	> 4 h	G (“G” indicates 1-100)	< 10 nM	H (“H” indicates 101-1000)
CC[C@@H](NC(=O)N1C(=O)[C@H](Cc2ccnc(N)c2)[C@H]1C(=O)N(C)c1ccn(C)n1)c1cccc(Cl)c1 [Compound 1-91, (2S,3R)-3-((2-aminopyridin-4-yl)methyl)-N2-(1-methyl-1H-pyrazol-3-yl)-N1-((R)-1-(3-chlorophenyl)propyl)-N2-methyl-4-oxoazetidine-1,2-dicarboxamide]	1.02 to 2 h	G (“G” indicates 1-100)	< 10 nM	H (“H” indicates 101-1000)
CC[C@@H](NC(=O)N1C(=O)[C@H](Cc2ccnc(N)c2)[C@H]1C(=O)N(C)c1cn(C)cn1)c1ccccc1 [Compound 1-90, (2S,3R)-3-((2-aminopyridin-4-yl)methyl)-N2-(1-methyl-1H-imidazol-4-yl)-N1-((R)-1-phenylpropyl)-N2-methyl-4-oxoazetidine-1,2-dicarboxamide]	2.02 to 4 h	G (“G” indicates 1-100)	< 10 nM	I (“I” indicates > 500)
CC[C@@H](NC(=O)N1C(=O)[C@H](Cc2cc(C)nc(NC)c2)[C@H]1C(=O)N(C)c1ccnn1C)C1CCCCC1 [Compound 1-62, (2S,3R)-3-((2-methylamino-6-methylpyridin-4-yl)methyl)-N2-(1-methyl-1H-pyrazol-5-yl)-N1-((R)-1-cyclohexylpropyl)-N2-methyl-4-oxoazetidine-1,2-dicarboxamide]	< 1 h	G (“G” indicates 1-100)	10 to 100 nM	I (“I” indicates > 500)
CC[C@@H](NC(=O)N1C(=O)[C@H](Cc2ccnc(N)c2)[C@H]1C(=O)N(C)c1nccn1C)c1cccc(Cl)c1 [Compound 1-35, (2S,3R)-3-((2-aminopyridin-4-yl)methyl)-N2-(1-methyl-1H-imidazol-2-yl)-N1-((R)-1-(3-chlorophenyl)propyl)-N2-methyl-4-oxoazetidine-1,2-dicarboxamide]	1.02 to 2 h	G (“G” indicates 1-100)	< 10 nM	H (“H” indicates 101-1000)
CC[C@@H](NC(=O)N1C(=O)[C@H](Cc2ccnc(N)c2)[C@H]1C(=O)N(C)c1nccn1C)c1ccc(C)nc1 [Compound 1-81, (2S,3R)-3-((2-aminopyridin-4-yl)methyl)-N2-(1-methyl-1H-imidazol-2-yl)-N1-((R)-1-(6-methylpyridin-3-yl)propyl)-N2-methyl-4-oxoazetidine-1,2-dicarboxamide]	2.02 to 4 h	G (“G” indicates 1-100)	10 to 100 nM	I (“I” indicates > 500)
CC[C@@H](NC(=O)N1C(=O)[C@H](Cc2cc(C)nc(N)c2)[C@H]1C(=O)N(C)c1ccn(C)n1)c1cccc(Cl)c1 [Compound 1-89, (2S,3R)-3-((2-amino-6-methylpyridin-4-yl)methyl)-N2-(1-methyl-1H-pyrazol-3-yl)-N1-((R)-1-(3-chlorophenyl)propyl)-N2-methyl-4-oxoazetidine-1,2-dicarboxamide]	> 4 h	G (“G” indicates 1-100)	< 10 nM	I (“I” indicates > 500)
